In patent US7820379B2, “Process for high throughput screening of CpG-based immuno-agonist/antagonist” (Coley Pharmaceutical GmbH, priority 2000, dated 2010):
pEC50: −log10 of the molar value.

Assays:
Assay type in all cases: cell-based
human TLR9 [1] = target: T1, human TLR9 (Homo sapiens, UniProt Q9NR96, H530R/Q688R); assay: NF-κB-luciferase activation in 293 cells transfected with human TLR9 (293-hTLR9-luc); conditions: ODN concentration of half-maximal activation; 293-hTLR9-luc cells, NF-κB-driven luciferase readout, 12 hours; read-out: 293-hTLR9 Kac
T1 construct: expressed in transfected cells
T1 sequence (Q9NR96 26-1032 H530R/Q688R): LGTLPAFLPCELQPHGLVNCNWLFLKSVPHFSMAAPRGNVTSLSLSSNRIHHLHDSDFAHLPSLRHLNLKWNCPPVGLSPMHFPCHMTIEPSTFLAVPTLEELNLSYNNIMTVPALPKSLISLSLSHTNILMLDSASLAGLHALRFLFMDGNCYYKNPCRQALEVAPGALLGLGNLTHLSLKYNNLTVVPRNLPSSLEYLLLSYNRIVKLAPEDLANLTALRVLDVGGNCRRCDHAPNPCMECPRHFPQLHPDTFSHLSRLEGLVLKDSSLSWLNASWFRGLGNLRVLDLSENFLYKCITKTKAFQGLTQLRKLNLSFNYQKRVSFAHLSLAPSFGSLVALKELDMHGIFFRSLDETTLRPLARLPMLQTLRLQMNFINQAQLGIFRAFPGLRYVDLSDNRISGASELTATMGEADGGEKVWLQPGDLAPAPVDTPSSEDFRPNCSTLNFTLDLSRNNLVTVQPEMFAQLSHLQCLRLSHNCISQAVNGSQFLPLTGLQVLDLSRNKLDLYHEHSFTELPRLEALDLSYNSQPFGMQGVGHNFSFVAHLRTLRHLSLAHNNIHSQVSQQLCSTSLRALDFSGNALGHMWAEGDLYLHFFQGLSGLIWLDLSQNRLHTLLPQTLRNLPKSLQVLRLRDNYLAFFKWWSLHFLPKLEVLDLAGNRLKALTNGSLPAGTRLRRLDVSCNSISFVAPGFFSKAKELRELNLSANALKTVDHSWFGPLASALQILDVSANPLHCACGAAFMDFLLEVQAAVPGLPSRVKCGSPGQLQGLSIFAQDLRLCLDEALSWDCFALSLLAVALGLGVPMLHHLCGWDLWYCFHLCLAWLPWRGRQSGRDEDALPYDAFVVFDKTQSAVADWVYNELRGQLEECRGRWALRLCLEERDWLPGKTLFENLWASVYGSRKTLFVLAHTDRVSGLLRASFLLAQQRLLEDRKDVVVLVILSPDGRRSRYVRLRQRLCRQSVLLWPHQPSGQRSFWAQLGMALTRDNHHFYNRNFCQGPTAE
Source text: Since NF-κB activation is central to the IL-1/TLR signal transduction pathway (Medzhitov R et al., Mol Cell 2:253-258 (1998); Muzio M et al., J Exp Med 187:2097-2101 (1998)), cells were transfected with hTLR9 or co-transfected with hTLR9 and a NF-κB-driven luciferase reporter construct. Human fibroblast 293 cells were transiently transfected with (FIG. 1A) hTLR9 and a six-times NF-κB-luciferase reporter plasmid (NF-κB-luc, kindly provided by Patrick Baeuerle, Munich, Germany) or (FIG. 1B) with hTLR9 alone. After stimulus with CpG-ODN (2006, 2 μM, […], SEQ ID NO:112), GpC-ODN (2006-GC, 2 μM, […], SEQ ID NO:118), LPS (100 ng/ml) or media, NF-κB activation by luciferase readout (8 h, FIG. 1A) or IL-8 production by ELISA (48 h, FIG. 1B) were monitored. Results are representative of three independent experiments.
To generate stable clones expressing human TLR9, murine TLR9, or either TLR9 with the NF-κB-luc reporter plasmid, 293 cells were transfected in 10 cm plates (2×10^6 cells/plate) with 16 μg of DNA and selected with 0.7 mg/ml G418 (PAA Laboratories GmbH, Cölbe, Germany). The clones were also screened for IL-8 production or NF-κB-luciferase activity after stimulation with ODN. Four different types of clones were generated. • 293-hTLR9-luc: expressing human TLR9 and 6-fold NF-κB-luciferase reporter • 293-mTLR9-luc: expressing murine TLR9 and 6-fold NF-κB-luciferase reporter • 293-hTLR9: expressing human TLR9 • 293-mTLR9: expressing murine TLR9 […]
(§1) Because stable TLR9 transfectants mirrored primary cell responsiveness to CpG-DNA (FIGS. 4 and 5), it was hypothesized that stable transfectants could potentially discern species-specific CpG-motifs through TLR9 receptors. Therefore 293-hTLR9-luc (expressing human TLR9 and 6-fold NF-κB-luc reporter), 293-mTLR9-luc (expressing murine TLR9 and 6-fold NF-κB-luc reporter), 293-hTLR9 (expressing human TLR9) and 293-mTLR9 (expressing murine TLR9) clones were tested for CpG-DNA motif responsiveness. […] Depicted are both NF-κB-driven luciferase and IL-8 production as readout. […] After lysis of the cells luciferase can be detected photometrically based on an enzymatic reaction by luciferase which creates photons. IL-8 production was monitored using enzyme-linked immunosorbent assay (ELISA). FIG. 11 depicts clones stimulated with ODN 2006 (filled circle), ODN 2006-GC (open circle), ODN 1668 (filled triangle) or ODN 1668-GC (open triangle) at indicated concentrations and NF-κB activation or IL-8 production were measured after 10 and 48 hours, respectively. Results shown in FIG. 11 are representative of three independent experiments. Strikingly, CpG-motif sequence specificity was conferred in a species-specific manner by TLR9. Additionally, the half-maximal concentration for either 2006 or 1668 appears nearly the same as those determined on primary cells (compare FIG. 10 and FIG. 11).
(§2) Although 2006 and 1668 are discussed in terms of CpG-motif differences, they are very different in several aspects (see Table 5 for comparison). The lengths are different, 24 versus 20 nucleotides, and 2006 has four CG dinucleotides compared to one in 1668. Additional differences are the CG position relative to the 5′ and 3′ ends and also 5′ sequence differences. In order to determine if motif specificity is a quality of the motif and not the global sequence environment, for this experiment several sequences were produced holding these variables constant. As a starting point, the 1668 sequence was modified by converting the central C to T and the distal TG to CG, thereby creating a second CG in the resulting sequence 5000 (SEQ ID NO:130, Table 5). Then point nucleotide changes were made, progressing toward a 2006-like sequence, 5007 (SEQ ID NO:98). The ODN 5002 (SEQ ID NO:132) is most like 1668 with the exception that C's at positions 12 and 19 have been converted to T's. […]

murine TLR9 = target: T2, murine TLR9 (Mus musculus, UniProt Q9EQU3, L378S/Q579H/T325N/T573A/T867A); assay: NF-κB-luciferase activation in 293 cells transfected with murine TLR9 (293-mTLR9-luc); conditions: for pEC50: ODN concentration of half-maximal activation, 293-mTLR9-luc cells, NF-κB-driven luciferase readout, 12 hours, read-out: 293-mTLR9 Kac
T2 construct: additional primers were designed for amplification of the complete mouse TLR9 cDNA; expressed in transfected cells
T2 sequence (Q9EQU3 26-1032 T325N/L378S/T573A/Q579H/T867A): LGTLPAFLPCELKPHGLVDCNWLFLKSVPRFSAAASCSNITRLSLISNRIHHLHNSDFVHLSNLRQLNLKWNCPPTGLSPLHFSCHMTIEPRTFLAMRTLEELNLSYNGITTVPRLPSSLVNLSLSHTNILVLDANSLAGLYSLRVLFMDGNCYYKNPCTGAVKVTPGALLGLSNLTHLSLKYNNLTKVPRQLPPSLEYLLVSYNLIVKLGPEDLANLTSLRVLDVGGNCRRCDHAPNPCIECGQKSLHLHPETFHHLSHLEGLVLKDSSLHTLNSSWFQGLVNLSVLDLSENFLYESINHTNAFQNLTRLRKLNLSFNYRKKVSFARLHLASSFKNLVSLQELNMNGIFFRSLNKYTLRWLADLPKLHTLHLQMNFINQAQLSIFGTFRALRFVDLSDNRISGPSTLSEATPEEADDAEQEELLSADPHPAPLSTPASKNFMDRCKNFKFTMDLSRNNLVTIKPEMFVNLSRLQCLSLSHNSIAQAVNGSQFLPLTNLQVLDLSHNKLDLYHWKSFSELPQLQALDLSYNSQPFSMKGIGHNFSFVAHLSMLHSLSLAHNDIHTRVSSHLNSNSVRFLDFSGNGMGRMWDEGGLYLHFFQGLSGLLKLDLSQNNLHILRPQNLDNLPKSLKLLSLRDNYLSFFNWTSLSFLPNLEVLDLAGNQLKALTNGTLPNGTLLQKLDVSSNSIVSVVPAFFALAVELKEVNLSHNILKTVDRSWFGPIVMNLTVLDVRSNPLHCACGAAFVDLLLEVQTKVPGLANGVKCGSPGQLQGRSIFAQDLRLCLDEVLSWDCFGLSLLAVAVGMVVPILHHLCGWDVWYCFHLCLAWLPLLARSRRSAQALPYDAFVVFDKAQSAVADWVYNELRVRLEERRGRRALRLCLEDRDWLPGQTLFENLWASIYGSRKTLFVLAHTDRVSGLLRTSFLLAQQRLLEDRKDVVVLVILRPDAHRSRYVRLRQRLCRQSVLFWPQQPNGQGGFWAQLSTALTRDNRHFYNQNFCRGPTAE
Source text: Human fibroblast 293 cells were transiently transfected with mTLR9 and the NF-κB-luc construct (FIG. 2). Similar data was obtained for IL-8 production (not shown). Thus expression of TLR9 (human or mouse) in 293 cells results in a gain of function for CpG-DNA stimulation similar to hTLR4 reconstitution of LPS responses.
To generate stable clones expressing human TLR9, murine TLR9, or either TLR9 with the NF-κB-luc reporter plasmid, 293 cells were transfected in 10 cm plates (2×10^6 cells/plate) with 16 μg of DNA and selected with 0.7 mg/ml G418 (PAA Laboratories GmbH, Cölbe, Germany). The clones were also screened for IL-8 production or NF-κB-luciferase activity after stimulation with ODN. Four different types of clones were generated. • 293-hTLR9-luc: expressing human TLR9 and 6-fold NF-κB-luciferase reporter • 293-mTLR9-luc: expressing murine TLR9 and 6-fold NF-κB-luciferase reporter • 293-hTLR9: expressing human TLR9 • 293-mTLR9: expressing murine TLR9
Similar results were obtained utilizing IL-8 production with the stable clone 293-hTLR9. 293-mTLR9-luc were also stimulated with CpG-ODN (1668, 2 μM; […], SEQ ID NO:84), GpC-ODN (1668-GC, 2 μM; […], SEQ ID NO:85), Me-CpG-ODN (1668 methylated, 2 μM; TCCATGAZGTTCCTGATGCT, Z=5-methylcytidine, SEQ ID NO:207), LPS (100 ng/ml) or media, as measured by monitoring NF-κB activation (FIG. 5). Similar results were obtained utilizing IL-8 production with the stable clone 293-mTLR9. Results are representative of at least two independent experiments. […] These cells can be used for screening of optimal ligands for innate immune responses driven by TLR9 in multiple species.
as §1, with “FIG. 11 depicts clones stimulated with ODN 2006 (filled circle), ODN 2006-GC (open circle), ODN 1668 (filled triangle) or ODN 1668-GC (open triangle) at indicated concentrations and NF-κB activation or IL-8 production were measured after 10 and 48 hours, respectively.” left out
as §2

human TLR9 [2] = target: T1, human TLR9; assay: NF-κB-luciferase activation in 293 cells transfected with human TLR9 (293-hTLR9-luc); conditions: 12 hours

For “TCCATGACGTTCTTGATGTT (listed as DNA, chemistry not fully specified) [ODN 5002]”, the pEC50 (human TLR9 [1]) was 5.15.

For “TCCATGACGTCCTTGATGTT (listed as DNA, chemistry not fully specified) [ODN 5009]”, the 293-mTLR9 responsiveness (murine TLR9; ACGTT versus ACGTC (5002 versus 5009)) was “completely destroyed 293-mTLR9 responsiveness” and the pEC50 (murine TLR9) was less than 5.00.

“TCCATGACGTCATTGATGTT (listed as DNA, chemistry not fully specified) [ODN 5010]” gave a pEC50 (murine TLR9) of less than 5.00.

In the case of “TCCATGACGTTATTGATGTT (listed as DNA, chemistry not fully specified) [ODN 5008]”, the pEC50 (murine TLR9) was 7.40.

With “5′-HHHHHHHHHHHHHHWGGGGG-3′ (chemistry not given here) [blocking ODN, H=A, T, C; W=A, T]” the “blockade of CpG-ODN-induced NF-κB activation” value (human TLR9 [2]; 293-hTLR9-luc cells, CpG-ODN 0.5 μM, increasing concentrations of blocking ODN) was “sensitive to non-CpG-ODN blockade” and the “TNF-driven NF-κB signal” value (human TLR9 [2]; 293-hTLR9-luc cells, TNF-α 10 ng/ml, increasing concentrations of blocking ODN) was “not diminished”.

With `CO/C1=C\C(C)=C\[C@@H](C)[C@@H](O)[C@@H](C)C/C(C)=C/C=C/[C@H](OC)[C@@H]([C@@H](C)[C@@H](O)[C@H](C)[C@@]2(O)C[C@@H](O)[C@H](C)[C@@H](C(C)C)O2)OC1=O` [Bafilomycin A] the “CpG-ODN induction of NF-κB” value (human TLR9 [2]; 293-hTLR9-luc cells preincubated 30 min with 10 nM, CpG-ODN 2006 0.5 μM) was “fully blocks” and the “IL-1 and TNF induction of NF-κB” value (human TLR9 [2]; 293-hTLR9-luc cells preincubated 30 min with 10 nM, IL-1 10 ng/ml or TNF-α 10 ng/ml) was “unaffected”.

With “TCCATGACGTTTTTGATGTT (listed as DNA, chemistry not fully specified) [ODN 5003]” the pEC50 (human TLR9 [1]) was 5.00.
